Test results as given in patent US20140329833A1, “LYSINE DEMETHYLASE INHIBITORS FOR INFLAMMATORY DISEASES OR CONDITIONS” (ORYZON GENOMICS, S.A, priority 2011, published 2014).

How the values were obtained:
[1] = tested on: dimethylated H3K4 in SH-SY5Y cells; assay: Western blot for H3K4 methylation in SH-SY5Y cells; format: cell-based; conditions: Dual-1 100 μM vs parnate 250 μM
Description: FIG. 3 Compound Dual-1 Increases Histone Methylation.
B-actin was used as a loading control.

LSD1 [2] = biological target: T1, LSD1 (Homo sapiens, UniProt O60341); assay: LSD1 demethylase inhibition assay (Amplex Red peroxide/peroxidase-coupled); format: biochemical; design: purchased BPS Bioscience Inc; conditions: from the IC50 values for LSD1, MAO-A and MAO-B
Protocol: Compounds for use in the methods of the invention can be identified by their ability to inhibit LSD1. The ability of compounds to inhibit LSD1 can be tested as follows. Human recombinant LSD1 protein was purchased from BPS Bioscience Inc. In order to monitor LSD1 enzymatic activity and/or its inhibition rate by the LSD1 inhibitor(s) of interest, di-methylated H3-K4 peptide (Millipore) was chosen as a substrate.
Within the experiment, each concentration of inhibitor was tested in duplicate. […] The enzymatic reactions were set up in a 50 mM sodium phosphate, pH 7.4 buffer. At the end of the incubation, Amplex® Red reagent and horseradish peroxidase (HPR) solution were added to the reaction according to the recommendations provided by the supplier (Invitrogen), and left to incubate for 30 extra minutes at room temperature in the dark. A 1 μM H2O2 solution was used as a control of the kit efficiency. […] Arbitrary units were used to measure level of H2O2 produced in the absence and/or in the presence of inhibitor.
The maximum demethylase activity of LSD1 was obtained in the absence of inhibitor and corrected for background fluorescence in the absence of LSD1. The Ki (IC50) of each inhibitor was estimated at half of the maximum activity.

LSD1 [3] = biological target: T1, LSD1; conditions: Ueda et al. (2009) J. Am. Chem. Soc. 131(48):17536-17537; cited from earlier work

In the case of `NC(=O)CN[C@H]1C[C@@H]1c1ccc(OCc2ccccc2)cc1` (racemic) [Compound 1], the “potency at increasing global H3K4 methylation levels compared to tranylcypromine” value [1] is listed as “ten-fold or more potent”, the “selectivity class (LSD1 vs MAO-A and MAO-B)” value (LSD1 [2]) is listed as “dual LSD1/MAO-B selective inhibitors” and the IC50 (LSD1 [3]) is listed as 2500 nM.
